Reference: US20250092036A1, “COMPOUNDS AND COMPOSITIONS FOR MODULATING THE ACTIVITY OF ERK” (Novartis AG, priority 2023, published 2025)
Read-outs that look alike come from different tables or passages of the source.

Assays:
[1] = target: T1, nanobit-large-bit-ERK2 and nanobit-small-bit-PEA15 in WM793 cells (Homo sapiens, UniProt P28482); experiment: NanoBiT assay; assay type: cell-based; details: WM793 nanobit stable cell line, overnight incubation; read-out: NanoBiT qualified absolute AC50
T1 construct: expressed in transfected cells
Experimental: (§1) Cancer cell media was prepared by adding 500 mL of RPMI (ThermoFisher cat ##22400-089) and 10% Fetal Bovine Serum (Gibco) for WM793 cells (ATCC Cat #CRL-2806, RRID: CVCL 8787) and F12K (Thermo Fisher cat #21127-022, 500 mL; or 21127-030, 10×500 mL)+10% FBS for PC3 (ATCC CRL-1435) cells. The entire media with supplements was filter sterilized through a 0.4 μm bottle top filter system. Cancer cell lines were detached from traditional cell culture flasks by washing three times with 1×PBS and adding an appropriate amount of 0.25% TrypLE™ Express Enzyme (1×), no phenol red (ThermoFisher cat #12604013) to create a thin layer over the cells. Trypsin was neutralized with media containing serum and proceeded to count the cells.
A nanobit stable cell line was generated using WM793 cells with nanobit-large-bit-ERK2 and nanobit-small-bit-PEA15. […] In a biological safety cabinet, cells were seeded using a sterilized small stainless steel tipped cassette on a Multi-drop Combi. Between different cell lines, the tubing of the cassette was flushed with 1× sterile PBS for 10 s. Alternatively, cells can be seeded using a Multi-flow located within a Hepa filtered robotics room using either a sterilized small sapphire jewel tipped cassette and the peristatic pump, or the attached syringe pump, depending on volume of plates per cell line needed. The plates were placed in an incubator set at 37° C., with 5% CO2 and 95% relative humidity. A 10-point, 3-fold serial dilution of compounds was prepared in 100% DMSO on a liquid handling robot with a 10 mM top concentration. 90 nl/well was dispensed in three assay plates/1 compound source plate, with the highest concentration at 30 μM. After addition of compound was complete, the plates were placed into an incubator at 37° C., with 5% CO2 and 95% relative humidity for overnight. Luminescence was captured on a plate luminometer such as an Envision or View Lux to measure Day 0 time point both select cell lines. LUM plus, gain 3500, 0.1 s and focal height 12.5 [mm] on PheraStar reader. The raw data was extracted from the instrument and normalized all fields containing test compounds to the average of all wells containing DMSO alone as neutral control. From this value, the percent growth inhibition was calculated for each compound. Dose response curves and inhibitory IC50s were generated by graphing the normalized data values against the compound concentration using either a program such as GraphPad™ or Excel Fit.

[2] = test system: WM793 cells; experiment: Cell proliferation assay (CellTiter-Glo); assay type: cell-based; details: 3 d, read-out: Cell proliferation qualified AC50
Experimental: as §1
After counting the cells, the concentration of the cell solution was adjusted to seed a total of 750 cells per well in 50 μL of complete media into 384-well tissue culture treated plates. In a biological safety cabinet, cells were seeded using a sterilized small stainless steel tipped cassette on a Multi-drop Combi. Between different cell lines, the tubing of the cassette was flushed with 1× sterile PBS for 10 seconds. Alternatively, cells can be seeded using a Multi-flow located within a Hepa filtered robotics room using either a sterilized small sapphire jewel tipped cassette and the peristatic pump, or the attached syringe pump, depending on volume of plates per cell line needed. The plates were placed in an incubator set at 37° C., with 5% CO2 and 95% relative humidity. A 10-point, 3-fold serial dilutions of compounds in 100% DMSO was prepared on a liquid handling robot with a 10 mM top concentration. 100 nL/well in three assay plates/1 compound was dispensed to source plate, with the highest concentration at 20 μM. After addition of compound was complete, plates were placed into an incubator at 37° C., with 5% CO2 and 95% relative humidity for 3 d. An adequate volume of CellTiter-Glo® (Promega #G7571) detection reagent was pre-warmed to RT or in a 37° C. H2O bath. 25 μL of the reagent was added to each well using either a Multi-drop Combi or MultiFlo and incubate at RT for at least 15 min. Luminesce was captured on a plate luminometer such as an Envision or View Lux to measure Day 0 time point both select cell lines. LUM plus, gain 3500, 0.1 s and focal height 12.5 mm on PheraStar reader. At Day 3, an adequate volume of CellTiter-Glo® detection reagent was pre-warmed at RT or in a 37° C. H2O bath. A total of 25 μL of the reagent was added to each well using either a Multi-drop Combi or MultiFlo and incubate at RT for at least 15 min. Luminesce was captured on a plate luminometer such as an Envision or View Lux to measure Day 3 time point both select cell lines. LUM plus, gain 3500, 0.1 s and focal height 12.5 mm on PheraStar reader. Raw data was extracted from the instrument and all fields containing test compounds were normalized to the average of all wells containing DMSO alone from Day 3 as neutral control and Day 0 starting numbers. From this value, percent growth inhibition of each compound was calculated. Dose response curves and growth inhibitory IC50s were generated by graphing the normalized data values against the compound concentration using a program such as GraphPad™ or Excel Fit.

[3] = target: T2, ERK2[2-360(p-T185/p-Y187)]-Avi (Homo sapiens, UniProt P28482); experiment: Biochemical assay (HTRF competition assay); assay type: binding; details: HTRF competition with Example 15 probe, overnight at RT; read-out: Biochemical qualified AC50
T2 construct: 400 pM ERK2[2-360(p-T185/p-Y187)]-Avi was added to the plate
Experimental: The competition assays were performed at RT in a 384-well white polystyrene, flat bottom plate (Greiner #784075) using a final reaction volume of 15 μL and the following assay buffer conditions: 50 mM MOPS, pH 7.2, 10 mM MgCl2, 0.5 mM TCEP, 0.01% Triton-X-100. 75 nL of a 10 mM compound solution in DMSO or 100% DMSO (12 point titration, final concentration: 50 μM-300 pM; final DMSO: 0.5%) was added using an acoustic liquid handler (Echo, Beckman Coulter) to wells containing 7.5 μL of 1-(6-((R)-3-(1-(5-chloro-1-((tetrahydro-2H-pyran-4-yl)methyl)-1H-indole-3-carbonyl)-4-(4-fluorophenyl)piperidine-4-carboxamido)pyrrolidin-1-yl)-6-oxohexyl)-3,3-dimethyl-5-sulfo-2-((1E,3E)-5-((E)-1,3,3-trimethyl-5-sulfoindolin-2-ylidene)penta-1,3-dien-1-yl)-3H-indol-1-ium (Example 15); 7.5 μL 400 pM SA-Tb (Cisbio, 610SATLB) and 400 pM ERK2[2-360(p-T185/p-Y187)]-Avi was added to the plate and incubated overnight at RT. HTRF signal was measured using a microplate reader (PheraStar, BMG Labtech) with excitation and emission wavelengths of […], respectively. The inhibitor dose-response curves were analyzed from the HTRF ratio signal using normalized IC50 regression curve fitting with control-based normalization.

T2 sequence (P28482 2-360 limits assumed): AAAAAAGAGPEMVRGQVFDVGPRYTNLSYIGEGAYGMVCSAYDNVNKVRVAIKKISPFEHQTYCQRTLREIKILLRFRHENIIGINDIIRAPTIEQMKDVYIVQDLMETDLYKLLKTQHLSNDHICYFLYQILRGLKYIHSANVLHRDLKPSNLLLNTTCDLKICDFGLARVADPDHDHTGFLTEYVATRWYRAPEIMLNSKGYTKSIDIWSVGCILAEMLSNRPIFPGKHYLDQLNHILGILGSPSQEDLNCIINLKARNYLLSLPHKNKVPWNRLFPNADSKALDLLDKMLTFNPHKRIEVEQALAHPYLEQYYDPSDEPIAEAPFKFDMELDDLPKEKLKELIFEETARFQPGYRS
T1 sequence (P28482 whole entry): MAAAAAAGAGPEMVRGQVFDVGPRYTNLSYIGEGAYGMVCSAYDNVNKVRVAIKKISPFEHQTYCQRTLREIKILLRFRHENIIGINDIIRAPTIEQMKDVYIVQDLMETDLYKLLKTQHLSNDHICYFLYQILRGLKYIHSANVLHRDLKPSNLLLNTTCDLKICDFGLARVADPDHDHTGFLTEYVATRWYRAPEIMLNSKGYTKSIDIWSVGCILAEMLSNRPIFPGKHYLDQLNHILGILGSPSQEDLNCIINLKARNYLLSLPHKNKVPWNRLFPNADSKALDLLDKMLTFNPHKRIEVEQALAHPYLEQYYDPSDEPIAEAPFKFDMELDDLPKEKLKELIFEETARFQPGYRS

SMILES	AC50 [1] [nM]	AC50 ([2]; Homo sapiens, WM793, 72 h) [nM]	AC50 [3] [nM]	AC50 [2] [nM]
CCOC1CCC(Cc2c(C)n(C(=O)N3CC[C@@](C(=O)N[C@H]4CC[C@H](C(=O)O)C[C@@H]4C)(c4ccc(F)cc4)C[C@@H]3C)c3cc(F)ccc23)OC1 (single isomer, unassigned) [Example 8a]	28	13	< 0.28	–
CCc1c(CC2CCOCC2)c2ccc(F)cc2n1C(=O)N1CCC(C(=O)N[C@H]2CC[C@H](C(=O)O)C[C@@H]2C)(c2ccc(F)cc2)CC1 [Example 1h]	55	16	< 0.28	–
C[C@H]1C[C@@H](C(=O)O)CC[C@@H]1NC(=O)[C@@]1(c2ccc(F)cc2)CCN(C(=O)N2CC([C@H]3CC[C@H](OC4CCOCC4)CC3)c3ccc(F)cc32)[C@@H](C)C1 (single isomer, unassigned) [Example 4a]	24	4	0.87	–
Cc1c(C(=O)N2CCC(C(=O)N[C@H]3CN(C)C[C@H]3F)(c3ccc(F)cc3)CC2)c2cc(Cl)ccc2n1CC1CCOCC1 [Example 12, 1-(5-chloro-2-methyl-1-((tetrahydro-2H-pyran-4-yl)methyl)-1H-indole-3-carbonyl)-N-((3S,4R)-4-fluoro-1-methylpyrrolidin-3-yl)-4-(4-fluorophenyl)piperidine-4-carboxamide]	350	270	1.3	–
CC(C)O[C@H]1CC[C@H](Cn2c(C=O)c(C(=O)N3CCC(C(=O)N[C@H]4CC[C@H](C(=O)O)C[C@@H]4C)(c4ccc(F)cc4)CC3)c3cc(Cl)ccc32)CC1 [Example 11h]	54	120	< 0.28	–
CCc1c(C[C@H]2CC[C@H](OC3CCOCC3)CC2)c2ccc(F)cc2n1C(=O)N1CCC(C(=O)N[C@H]2CC[C@H](C(=O)O)C[C@@H]2C)(c2ccc(Cl)nc2)CC1 [Example 1k]	250	33	0.48	–
CCc1c(C[C@H]2CC[C@H](OC3CCOCC3)CC2)c2ccc(F)cc2n1C(=O)N1CC[C@@](C(=O)N[C@H]2CC[C@H](C(=O)O)C[C@@H]2C)(c2ccc(F)cc2)C[C@@H]1C [Example 6, (1S,3S,4S)-4-((2S,4S)-1-(2-ethyl-6-fluoro-3-(((1r,4S)-4-((tetrahydro-2H-pyran-4-yl)oxy)cyclohexyl)methyl)-1H-indole-1-carbonyl)-4-(4-fluorophenyl)-2-methylpiperidine-4-carboxamido)-3-methylcyclohexane-1-carboxylic acid]	72	–	0.98	23
C[C@H]1C[C@@H](C(=O)O)CC[C@@H]1NC(=O)C1(c2ccc(F)cc2)CCN(C(=O)n2c3c(c4ccc(F)cc42)[C@H](c2ccccc2)OCC3)CC1 (single isomer, unassigned) [Example 10a]	88	77	0.35	–
C[C@H]1C[C@@H](C(=O)O)CC[C@@H]1NC(=O)[C@@]1(c2ccc(F)cc2)CCN(C(=O)N2CCc3ccc(F)cc32)[C@@H](C)C1 [Example 4b]	260	220	0.32	–
CCO[C@H]1CC[C@H](Cc2c(C)n(C(=O)N3CC[C@@](C(=O)N[C@H]4CC[C@H](C(=O)O)C[C@@H]4C)(c4ccc(F)cc4)C[C@@H]3C)c3cc(F)ccc23)OC1 (mixture of isomers) [Example 8, (1S,3S,4S)-4-((2S,4S)-1-(3-((trans-5-ethoxytetrahydro-2H-pyran-2-yl)methyl)-6-fluoro-2-methyl-1H-indole-1-carbonyl)-4-(4-fluorophenyl)-2-methylpiperidine-4-carboxamido)-3-methylcyclohexane-1-carboxylic acid]	31	15	< 0.28	–
COCCc1c(C[C@H]2CC[C@H](OC(C)C)CC2)c2cc(F)c(F)cc2n1C(=O)N1CCC(C(=O)N[C@H]2CC[C@H](C(=O)O)C[C@@H]2C)(c2ccc(F)cc2)CC1 [Example 1f]	140	52	< 0.28	–
CO[C@H]1CC[C@H](Cc2c(C)n(C(=O)N3CCC(C(=O)N[C@H]4CC[C@H](C(=O)O)CC4)(c4ccc(F)cc4)CC3)c3cc(F)ccc23)CC1 [Example 1c]	390	940	1.3	–
CCc1c(C[C@H]2CC[C@H](OC(C)C)CC2)c2ccc(F)cc2n1C(=O)N1CCC(C(=O)N[C@H]2CC[C@H](C(=O)O)C[C@@H]2C)(c2ccc(F)cc2)CC1 [Example 2, (1S,3S,4S)-4-(1-(2-ethyl-6-fluoro-3-(((1r,4S)-4-isopropoxycyclohexyl)methyl)-1H-indole-1-carbonyl)-4-(4-fluorophenyl)piperidine-4-carboxamido)-3-methylcyclohexane-1-carboxylic acid]	190	–	< 0.28	110
CCc1c(C[C@H]2CC[C@H](OC3CCOCC3)CC2)c2ccc(F)cc2n1C(=O)N1CCC(C(=O)N[C@H]2C[C@H](C(=O)O)C[C@@H]2C)(c2ccc(F)cc2)CC1 [Example 1d]	300	110	< 0.28	–
CCO[C@H]1CC[C@H](Cc2c(C)n(C(=O)N3CCC(C(=O)N[C@H]4CC[C@H](C(=O)O)C[C@@H]4C)(c4ccc(F)cc4)CC3)c3cc(F)ccc23)CC1 [Example 7, (1S,3S,4S)-4-(1-(3-(((1r,4S)-4-ethoxycyclohexyl)methyl)-6-fluoro-2-methyl-1H-indole-1-carbonyl)-4-(4-fluorophenyl)piperidine-4-carboxamido)-3-methyl cyclohexane-1-carboxylic acid]	80	96	0.33	–
